Common to all, as to assay type: in vivo
One data set deals with Scirpus juncoides. The data set is described as follows: Test Example 2: herbicidal activity, application during weed generation in submerged conditions (symbol B). The following applies: Table 23; application herbicide amount 320 g/ha; grade 0-5 by criteria of Test Example 1. The method in brief: (§1)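 Seeds sown in flooded alluvial soil (4 cm water) were grown in a 25-30° C greenhouse. At the one- to two-leaf stage, diluted emulsion of compound was applied to the water surface at a predetermined rate. Effect was scored 3 weeks later.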

The test system of the next data set is rapeseed. The data set is described as follows: Test Example 4: effect on crop by soil treatment (symbol g). The following applies: application herbicide amount 320 g/ha. The essentials: (§2)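 Steps: fill box with sterilized diluvial soil; sow seed spot-like; cover with ~1.5 cm soil; grow in greenhouse (25° C. to 30° C.).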
Data set [1] relates to Apera spica-venti. The data set is described as follows: Test Example 5: herbicidal effect by foliage application, plastic box (symbol L). The following applies: 320 g/ha, 3 weeks after application. The essentials:
(§3)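 Visual herbicidal score, taken three weeks post-application, of seedlings sprayed on the foliage with water-diluted emulsion at a predetermined amount; plants were 14 days old, greenhouse-raised at 25° C. to 30° C.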

The test system of another data set is Cyperus difformis. Kind of data set: Test Example 3: herbicidal effect by foliage application, Wagner pot (symbol E). The following applies: application herbicide amount 320 g/ha. The essentials: (§4)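 Plants sown in submerged alluvial soil (water depth 0.1–0.5 cm) in a 25–30 °C greenhouse and grown 14 days. An emulsion of the compound diluted in water to a set herbicide amount was sprayed uniformly on foliage. Effect on each plant scored 3 weeks after application.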

Data set [2] relates to Apera spica-venti. The data set is described as follows: Test Example 4: herbicidal effect by soil treatment (symbol L). The following applies: application herbicide amount 320 g/ha. The essentials: (§5)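 Seeds were sown in sterilized diluvial soil, covered with about 1.5 cm of soil, and the soil surface was sprayed with a water-diluted emulsion of the compound at a predetermined rate. Plants grew in a greenhouse at 25° C. to 30° C.; effects were scored visually 3 weeks after application.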

A further data set concerns Leptochloa chinensis. The data set is described as follows: Test Example 3: herbicidal effect by foliage application, Wagner pot (symbol D). The following applies: application herbicide amount 320 g/ha. The method in brief: as §4
Data set [3] deals with directly sowed rice plant. The data set is described as follows: Test Example 3: effect on crop by foliage application, Wagner pot (symbol b). The following applies: application herbicide amount 320 g/ha. The essentials:
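Wagner pot (1/10000 are), alluvial soil, submerged 0.1–0.5 cm; sown E. crus-galli var. crus-galli, L. chinensis, C. difformis, rice; greenhouse 25–30 °C.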

The test system of data set [4] is Echinochloa crus-galli var. crus-galli. The data set is described as follows: Test Example 4: herbicidal effect by soil treatment (symbol H). The following applies: application herbicide amount 320 g/ha. The method in brief:
as §5

Another data set deals with Chenopodium album. Kind of data set: Test Example 5: herbicidal effect by foliage application, plastic box (symbol O). The following applies: 320 g/ha, 3 weeks after application. The essentials: as §3
Data set [5] relates to Echinochloa crus-galli var. crus-galli. The data set is described as follows: Test Example 3: herbicidal effect by foliage application, Wagner pot (symbol H). The following applies: application herbicide amount 320 g/ha. The essentials:
as §4

In the next data set the test system is Monochoria vaginalis. Kind of data set: Test Example 2: herbicidal activity, application during weed generation in submerged conditions (symbol C). The following applies: Table 23; application herbicide amount 320 g/ha; grade 0-5 by criteria of Test Example 1. The essentials: as §1
For the next data set, the system named is transplanted rice plant. The data set is described as follows: Test Example 1: effect on crop, application before weed generation in submerged conditions (symbol a). The following applies: application herbicide amount 320 g/ha. The essentials: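 Alluvial soil pots flooded to 4 cm water, sown with Echinochloa oryzacola, Scirpus juncoides and Monochoria vaginalis, then transplanted with 2.5 leaf stage rice seedlings; pre-emergence application. Greenhouse 25° C. to 30° C.; scored 0–5 by herbicidal ratio 3 weeks after application.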

The next data set relates to Stellaria media. Kind of data set: Test Example 5: herbicidal effect by foliage application, plastic box (symbol P). The following applies: 320 g/ha, 3 weeks after application. The essentials: as §3
A further data set has as its system Abutilon theophrasti. The data set is described as follows: Test Example 5: herbicidal effect by foliage application, plastic box (symbol M). The following applies: 320 g/ha, 3 weeks after application. The essentials: as §3
Another data set relates to beet. The data set is described as follows: Test Example 4: effect on crop by soil treatment (symbol f). The following applies: application herbicide amount 320 g/ha. The method in brief: as §2

Regarding `CON=C(C)CC1CC(OC(=O)C2CC2)=C(c2c(C)cc(C)cc2C)C1=O` (stereo not shown) [1-015], in the data set on Scirpus juncoides, the “Herbicidal effect grade, B: Scirpus juncoides” value was 4 (Herbicidal ratio of 70% or higher and lower than 90%). In the data set with rapeseed, the “g (rapeseed) effect on crop grade” value is 4 (Herbicidal ratio of 70% or higher and lower than 90%). Further, in the data set on Apera spica-venti [1], the “L: Apera spica-venti, herbicidal effect grade” value is 5 (Herbicidal ratio of 90% or more (almost completely withered)). For the same molecule, the “herbicidal effect on E, grade 0-5” value with Cyperus difformis is listed as 5 (Herbicidal ratio of 90% or more (almost completely withered)). The “L (Apera spica-venti) herbicidal effect grade” value in the data set on Apera spica-venti [2] was 5 (Herbicidal ratio of 90% or more (almost completely withered)). The “herbicidal effect on D (Leptochloa chinensis), grade 0-5” value in the data set on Leptochloa chinensis is 5 (Herbicidal ratio of 90% or more (almost completely withered)). In data set [3], the “effect on crop b (directly sowed rice plant), grade 0-5” value is given as 5 (Herbicidal ratio of 90% or more (almost completely withered)). For the same molecule, the “H (Echinochloa crus-galli var. crus-galli) herbicidal effect grade” value in data set [4] is on record as 5 (Herbicidal ratio of 90% or more (almost completely withered)). For the same molecule, in the data set on Chenopodium album, the “O: Chenopodium album, herbicidal effect grade” value is 3 (Herbicidal ratio of 40% or higher and lower than 70%). In data set [5], the “herbicidal effect on H (Echinochloa crus-galli var. crus-galli), grade 0-5” value was 5 (Herbicidal ratio of 90% or more (almost completely withered)). Besides, in the data set on Monochoria vaginalis, the “Herbicidal effect grade, C: Monochoria vaginalis” value was 4 (Herbicidal ratio of 70% or higher and lower than 90%). Moreover, the “Effect grade on crop, a: transplanted rice plant” value in the data set with transplanted rice plant was 5 (Herbicidal ratio of 90% or more (almost completely withered)). Moreover, the “P: Stellaria media, herbicidal effect grade” value in the data set on Stellaria media is 4 (Herbicidal ratio of 70% or higher and lower than 90%). Besides, the “M: Abutilon theophrasti, herbicidal effect grade” value in the data set with Abutilon theophrasti was 4 (Herbicidal ratio of 70% or higher and lower than 90%).

For the molecule `CON=C(C)CC1CC(OC(=O)N2CCOCC2)=C(c2c(C)cc(-c3ccc(F)c(Cl)c3)cc2C)C1=O` (stereo not shown) [6-093], the “Herbicidal effect grade, B: Scirpus juncoides” value in the data set with Scirpus juncoides is 3 (Herbicidal ratio of 40% or higher and lower than 70%). For the same molecule, in the data set on rapeseed, the “Effect on crop grade, g: rapeseed” value is 0 (Herbicidal ratio of 5% or lower (almost no effect)). In addition, the “L: Apera spica-venti, herbicidal effect (criteria of Test Example 1)” value with Apera spica-venti [1] is 5 (Herbicidal ratio of 90% or more (almost completely withered)). Also, the “Effect on crop grade, f: beet” value in the data set with beet is listed as 0 (Herbicidal ratio of 5% or lower (almost no effect)). For the same molecule, the “herbicidal effect on E, grade 0-5” value with Cyperus difformis was 4 (Herbicidal ratio of 70% or higher and lower than 90%). For the same molecule, the “herbicidal effect on D (Leptochloa chinensis), grade 0-5” value with Leptochloa chinensis is given as 5 (Herbicidal ratio of 90% or more (almost completely withered)). In addition, the “effect on crop b (directly sowed rice plant), grade 0-5” value in data set [3] is reported as 5 (Herbicidal ratio of 90% or more (almost completely withered)). Also, the “Herbicidal effect grade, H: Echinochloa crus-galli var. crus-galli” value in data set [4] is recorded as 5 (Herbicidal ratio of 90% or more (almost completely withered)). The “O: Chenopodium album, herbicidal effect (criteria of Test Example 1)” value in the data set on Chenopodium album was 5 (Herbicidal ratio of 90% or more (almost completely withered)). For the same molecule, in [5], the “herbicidal effect on H (Echinochloa crus-galli var. crus-galli), grade 0-5” value is 5 (Herbicidal ratio of 90% or more (almost completely withered)). Besides, in the data set with Monochoria vaginalis, the “Herbicidal effect grade, C: Monochoria vaginalis” value was 3 (Herbicidal ratio of 40% or higher and lower than 70%). Also, in the data set on transplanted rice plant, the “Effect grade on crop, a: transplanted rice plant” value is on record as 5 (Herbicidal ratio of 90% or more (almost completely withered)). Further, the “P: Stellaria media, herbicidal effect (criteria of Test Example 1)” value with Stellaria media is 4 (Herbicidal ratio of 70% or higher and lower than 90%). Further, in the data set on Abutilon theophrasti, the “M: Abutilon theophrasti, herbicidal effect (criteria of Test Example 1)” value was 3 (Herbicidal ratio of 40% or higher and lower than 70%).

(Values after patent publication US11000033B2, “Ketone or oxime compound, and herbicide” (NISSAN CHEMICAL CORPORATION, priority 2014, dated 2021).)
